Results published in PMC9217999 (Targeted Oncology, 2022).

Assay: Cobimetinib plasma pharmacokinetics in iMATRIX-cobi
Format: in vivo, human
Settings: for Cmax: human, plasma, oral, 1 mg/kg, Steady state Cmax, geometric mean (%CV), 1.0 mg/kg suspension

SMILES: O=C(c1ccc(F)c(F)c1Nc1ccc(I)cc1F)N1CC(O)([C@@H]2CCCCN2)C1 [cobimetinib]
- Cmax (dose escalation (n = 8)): 179 ng/mL
- Cmax (expansion (n = 9)): 116 ng/mL
- Exposure-safety relationships (pediatric patients): no exposure-safety relationships
